{"source": "paper PMC6572064", "about": "“Discovery of 2-(1-(3-(4-Chloroxyphenyl)-3-oxo- propyl)pyrrolidine-3-yl)-1H-benzo[d]imidazole-4-carboxamide: A Potent Poly(ADP-ribose) Polymerase (PARP) Inhibitor for Treatment of Cancer” (Molecules, 2019)", "key": {"PARP-2": {"target": "T1, PARP-2 (Homo sapiens, UniProt Q9UGN5)", "T1 construct": "purchased BPS Bioscience 80552", "T1 sequence (Q9UGN5 whole entry)": "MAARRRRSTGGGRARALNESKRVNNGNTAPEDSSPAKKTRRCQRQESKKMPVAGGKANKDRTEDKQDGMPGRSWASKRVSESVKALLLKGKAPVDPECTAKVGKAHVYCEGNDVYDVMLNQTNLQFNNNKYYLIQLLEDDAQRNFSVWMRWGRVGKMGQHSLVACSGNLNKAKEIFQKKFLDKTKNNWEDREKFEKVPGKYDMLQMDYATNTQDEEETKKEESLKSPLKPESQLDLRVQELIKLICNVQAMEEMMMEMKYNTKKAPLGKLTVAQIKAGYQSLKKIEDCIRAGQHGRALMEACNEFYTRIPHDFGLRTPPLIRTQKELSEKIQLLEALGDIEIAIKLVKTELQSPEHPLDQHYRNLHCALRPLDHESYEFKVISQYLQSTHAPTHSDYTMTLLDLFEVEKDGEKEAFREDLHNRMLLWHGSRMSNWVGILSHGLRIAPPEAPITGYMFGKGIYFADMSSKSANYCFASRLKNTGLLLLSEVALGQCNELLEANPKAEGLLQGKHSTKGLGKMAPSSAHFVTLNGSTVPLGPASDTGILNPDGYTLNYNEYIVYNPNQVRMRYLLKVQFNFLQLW", "experiment": "PARP-2 inhibition assay (PARP-2 Chemiluminescent Assay Kit, BPS Bioscience)", "type": "biochemical", "details": "10 nM compound", "description": "(§1) The PARP-1 and PARP-2 inhibition assays were performed in outsourcing, by a CRO company, Shanghai Medicilon Inc. (Shanghai, China). […] Briefly, PARP-1 or PARP-2 biotinylated substrate was incubated with compounds or solvent control at varying concentrations and an assay buffer containing the PARP-1 or PARP-2 enzyme."}, "[1]": {"tested_on": "CAPAN-1 (a BRCA-2-mutated pancreatic cancer cell line)", "experiment": "Cell proliferation assay, three-day, CellTiter-Glo, CAPAN-1", "type": "cell-based", "details": "for inhibition at 0.00508 µM: CAPAN-1, 0.00508 uM; for inhibition at 0.0152 µM: CAPAN-1, 0.0152 uM; for inhibition at 0.0457 µM: CAPAN-1, 0.0457 uM; for inhibition at […]: CAPAN-1, 0.14 uM; for inhibition at 0.41 µM: CAPAN-1, 0.41 uM; for inhibition at 1.23 µM: CAPAN-1, 1.23 uM; for inhibition at 3.7 µM: CAPAN-1, 3.70 uM; for inhibition at 11.11 µM: CAPAN-1, Conc. 11.11 uM; for inhibition at 33.33 µM: CAPAN-1, Conc. 33.33 uM; for inhibition at 100 µM: CAPAN-1, Conc. 100.00 uM", "description": "(§2) A three-day assay was conducted. A cell suspension was prepared. Cell density was counted by an automated cell counter and then diluted to the required density, according to seeding density. 50 μL cells were seeded into 384-well plate in growth medium according to the plate map. The cells were incubated at 37 °C, 5% CO2 overnight.\n(§3) 200× compound solution in DMSO was prepared and diluted with growth medium to 26× final concentration by addition of 26 μL 200× compounds to 174 μL growth medium. Then 2 μL of diluted compound solution was added to cells and the cell was incubated at 37 °C, 5% CO2 for 72 h.\n(§4) The assay plate was equilibrated to room temperature prior to measurement. 15 μL of CellTiter-Glo Reagent was added into each well and the contents were mixed for 2 min on an orbital shaker to induce cell lysis. The cells were incubated at room temperature for 60 min to stabilize luminescent signal. Luminescence was recorded on the Envision system."}, "[2]": {"tested_on": "MDA-MB-436 (a BRCA-1-mutated breast cancer cell line)", "experiment": "Cell proliferation assay, three-day, CellTiter-Glo, MDA-MB-436", "type": "cell-based", "details": "for inhibition at 0.00508 µM: MDA-MB-436, MDA-MB-436, Conc. 0.00508 uM; for inhibition at 0.0152 µM: MDA-MB-436, MDA-MB-436, Conc. 0.0152 uM; for inhibition at 0.0457 µM: MDA-MB-436, MDA-MB-436, Conc. 0.0457 uM; for inhibition at 0.41 µM: MDA-MB-436, MDA-MB-436, Conc. 0.41 uM; for inhibition at 1.23 µM: MDA-MB-436, MDA-MB-436, Conc. 1.23 uM; for inhibition at 3.7 µM: MDA-MB-436, MDA-MB-436, Conc. 3.70 uM", "description": "as §2, §3, §4"}, "PARP-1": {"target": "T2, PARP-1 (Homo sapiens, UniProt P09874)", "T2 construct": "purchased BPS Bioscience 80569", "T2 sequence (P09874 whole entry)": "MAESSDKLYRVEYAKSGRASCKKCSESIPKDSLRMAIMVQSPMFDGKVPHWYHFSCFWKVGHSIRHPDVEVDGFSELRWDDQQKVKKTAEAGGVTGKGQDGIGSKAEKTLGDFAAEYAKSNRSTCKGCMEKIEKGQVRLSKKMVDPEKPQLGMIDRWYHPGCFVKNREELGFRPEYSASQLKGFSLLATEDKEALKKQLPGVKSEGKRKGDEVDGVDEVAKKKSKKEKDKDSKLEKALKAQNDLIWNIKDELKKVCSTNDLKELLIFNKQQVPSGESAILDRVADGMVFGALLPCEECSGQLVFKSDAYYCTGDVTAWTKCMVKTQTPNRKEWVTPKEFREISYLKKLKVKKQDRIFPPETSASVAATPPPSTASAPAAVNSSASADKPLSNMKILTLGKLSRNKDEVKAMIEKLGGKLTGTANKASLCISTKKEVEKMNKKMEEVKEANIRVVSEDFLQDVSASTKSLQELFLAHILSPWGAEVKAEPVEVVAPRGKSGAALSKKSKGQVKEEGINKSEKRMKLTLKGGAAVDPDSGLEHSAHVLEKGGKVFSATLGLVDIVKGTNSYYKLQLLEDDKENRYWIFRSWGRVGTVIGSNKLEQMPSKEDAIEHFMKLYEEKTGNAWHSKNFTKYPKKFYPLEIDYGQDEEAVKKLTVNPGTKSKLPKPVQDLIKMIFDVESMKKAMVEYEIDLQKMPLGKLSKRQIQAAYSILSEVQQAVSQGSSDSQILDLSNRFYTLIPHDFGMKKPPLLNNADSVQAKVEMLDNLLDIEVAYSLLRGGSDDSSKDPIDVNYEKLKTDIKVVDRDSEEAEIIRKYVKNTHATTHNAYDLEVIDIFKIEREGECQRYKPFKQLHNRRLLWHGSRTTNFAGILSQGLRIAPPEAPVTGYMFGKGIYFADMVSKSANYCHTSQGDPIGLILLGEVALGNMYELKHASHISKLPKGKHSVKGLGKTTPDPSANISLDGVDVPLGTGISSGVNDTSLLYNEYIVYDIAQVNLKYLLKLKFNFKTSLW", "experiment": "PARP-1 inhibition assay (PARP-1 Chemiluminescent Assay Kit, BPS Bioscience)", "type": "biochemical", "details": "10 nM compound", "description": "as §1"}, "[3]": {"details": "CAPAN-1, curve fit of Inh %, plate 1"}, "[4]": {"details": "Homo sapiens, replicate 1, read-out: Inh % 1"}, "[5]": {"details": "Homo sapiens, replicate 2, read-out: Inh % 2"}}, "note": "Like-named read-outs stand apart in the source and are kept apart here."}
{"smiles": "NC(=O)c1cccc2[nH]c(C3CCN(CC(=O)Nc4ccccc4)C3)nc12", "note": "(centres unmarked) [Compound 5ca, 2-(1-(2-Oxo-2-(phenylamino)ethyl)pyrrolidin-3-yl)-1H-benzo[d]imidazole-4-carboxamide]", "values": [{"measurement": "inhibition at 0.01 µM", "setting": "PARP-2; supplement sheet, read-out: 10 nM inhibition% PAPR-2", "result": 34.5, "unit": "%"}, {"measurement": "inhibition at 0.01 µM", "setting": "PARP-2; read-out: PARP-2 Inhibition % (10 nM)", "result": 34.5, "unit": "%"}, {"measurement": "Bottom", "setting": "[1]; [3]", "result": 11.48}, {"measurement": "HillSlope", "setting": "[1]; [3]", "result": 1.045}, {"measurement": "Top", "setting": "[1]; [3]", "result": "= 100.0"}, {"measurement": "LogIC50", "setting": "[1]; CAPAN-1, curve fit, plate 1", "result": "2.027 Log (uM)"}, {"measurement": "IC50", "setting": "[1]; Homo sapiens, CAPAN-1, 72 h, CellTiter-Glo, read-out: CAPAN-1 IC50", "result": "> 100", "unit": "µM"}, {"measurement": "inhibition at 0.00508 µM", "setting": "[1]; [4]", "result": -2.6, "unit": "%"}, {"measurement": "inhibition at 0.00508 µM", "setting": "[1]; [5]", "result": 19.1, "unit": "%"}, {"measurement": "inhibition at 0.0152 µM", "setting": "[1]; [4]", "result": -2.3, "unit": "%"}, {"measurement": "inhibition at 0.0152 µM", "setting": "[1]; [5]", "result": 9.8, "unit": "%"}, {"measurement": "inhibition at 0.0457 µM", "setting": "[1]; [4]", "result": 6.6, "unit": "%"}, {"measurement": "inhibition at 0.0457 µM", "setting": "[1]; [5]", "result": 22, "unit": "%"}, {"measurement": "inhibition at […]", "setting": "[1]; [4]", "result": 7.4, "unit": "%"}, {"measurement": "inhibition at […]", "setting": "[1]; [5]", "result": 15.6, "unit": "%"}, {"measurement": "inhibition at 0.41 µM", "setting": "[1]; [4]", "result": 22.5, "unit": "%"}, {"measurement": "inhibition at 0.41 µM", "setting": "[1]; [5]", "result": 10.9, "unit": "%"}, {"measurement": "inhibition at 1.23 µM", "setting": "[1]; [4]", "result": 21.1, "unit": "%"}, {"measurement": "inhibition at 1.23 µM", "setting": "[1]; [5]", "result": 9.6, "unit": "%"}, {"measurement": "inhibition at 3.7 µM", "setting": "[1]; [4]", "result": 8.2, "unit": "%"}, {"measurement": "inhibition at 3.7 µM", "setting": "[1]; [5]", "result": 19.9, "unit": "%"}, {"measurement": "inhibition at 11.11 µM", "setting": "[1]; [4]", "result": 22.1, "unit": "%"}, {"measurement": "inhibition at 11.11 µM", "setting": "[1]; [5]", "result": 20.4, "unit": "%"}, {"measurement": "inhibition at 33.33 µM", "setting": "[1]; [4]", "result": 29.2, "unit": "%"}, {"measurement": "inhibition at 33.33 µM", "setting": "[1]; [5]", "result": 28.3, "unit": "%"}, {"measurement": "inhibition at 100 µM", "setting": "[1]; [4]", "result": 59.9, "unit": "%"}, {"measurement": "inhibition at 100 µM", "setting": "[1]; [5]", "result": 51.1, "unit": "%"}, {"measurement": "inhibition at 0.00508 µM", "setting": "[2]; [4]", "result": -8.8, "unit": "%"}, {"measurement": "inhibition at 0.00508 µM", "setting": "[2]; [5]", "result": -5.8, "unit": "%"}, {"measurement": "inhibition at 0.0152 µM", "setting": "[2]; [4]", "result": -0.8, "unit": "%"}, {"measurement": "inhibition at 0.0152 µM", "setting": "[2]; [5]", "result": -6.8, "unit": "%"}, {"measurement": "inhibition at 0.0457 µM", "setting": "[2]; [4]", "result": -1.6, "unit": "%"}, {"measurement": "inhibition at 0.0457 µM", "setting": "[2]; [5]", "result": -6.8, "unit": "%"}, {"measurement": "inhibition at 0.41 µM", "setting": "[2]; [4]", "result": 2.8, "unit": "%"}, {"measurement": "inhibition at 0.41 µM", "setting": "[2]; [5]", "result": -7.6, "unit": "%"}, {"measurement": "inhibition at 1.23 µM", "setting": "[2]; [4]", "result": 5.5, "unit": "%"}, {"measurement": "inhibition at 1.23 µM", "setting": "[2]; [5]", "result": -1.8, "unit": "%"}, {"measurement": "inhibition at 3.7 µM", "setting": "[2]; [4]", "result": 10.4, "unit": "%"}, {"measurement": "inhibition at 3.7 µM", "setting": "[2]; [5]", "result": 0.639, "unit": "%"}, {"measurement": "inhibition at 11.11 µM", "setting": "[2]; Homo sapiens, MDA-MB-436, MDA-MB-436, Conc. 11.11 uM, duplicate wells (Inh % 1, Inh % 2), read-out: Inh %", "result": 15.1, "unit": "%"}, {"measurement": "inhibition at 33.33 µM", "setting": "[2]; Homo sapiens, MDA-MB-436, MDA-MB-436, Conc. 33.33 uM, duplicate wells (Inh % 1, Inh % 2), read-out: Inh %", "result": 68.9, "unit": "%"}, {"measurement": "inhibition at 100 µM", "setting": "[2]; Homo sapiens, MDA-MB-436, MDA-MB-436, Conc. 100.00 uM, duplicate wells (Inh % 1, Inh % 2), read-out: Inh %", "result": 93.3, "unit": "%"}, {"measurement": "IC50", "setting": "[2]; Homo sapiens, MDA-MB-436, 72 h, CellTiter-Glo, read-out: MDA-MB-436 IC50", "result": 22.9, "unit": "µM"}, {"measurement": "IC50", "setting": "[2]; Homo sapiens, MDA-MB-436, 72 h, supplement Summary sheet, read-out: IC50", "result": 22.9, "unit": "µM"}, {"measurement": "IC50", "setting": "[2]; Homo sapiens, MDA-MB-436, curve fit list, no unit in the cell, concentration in uM, read-out: IC50", "result": 22.9, "unit": "µM"}, {"measurement": "Inh %", "setting": "[2]; MDA-MB-436, Conc. 11.11 uM, duplicate wells (Inh % 1, Inh % 2)", "result": 9.5, "unit": "%"}, {"measurement": "Inh %", "setting": "[2]; MDA-MB-436, Conc. 33.33 uM, duplicate wells (Inh % 1, Inh % 2)", "result": 56.4, "unit": "%"}, {"measurement": "Inh %", "setting": "[2]; MDA-MB-436, Conc. 100.00 uM, duplicate wells (Inh % 1, Inh % 2)", "result": 81.3, "unit": "%"}, {"measurement": "Bottom", "setting": "[2]; MDA-MB-436, curve fit parameter (Inh %)", "result": -3.40}, {"measurement": "Top", "setting": "[2]; MDA-MB-436, curve fit parameter (Inh %), '= 100.0' is a constrained value", "result": 92.23}, {"measurement": "LogIC50", "setting": "[2]; MDA-MB-436, curve fit, concentration axis Log (uM)", "result": 1.36}, {"measurement": "inhibition at 0.01 µM", "setting": "PARP-1; supplement sheet, read-out: 10 nM inhibition% PAPR-1", "result": 17.6, "unit": "%"}, {"measurement": "inhibition at 0.01 µM", "setting": "PARP-1; read-out: PARP-1 Inhibition % (10 nM)", "result": 17.6, "unit": "%"}]}
